Measured values reported in publication PMC8365602 (Journal of Medicinal Chemistry, 2021).

Tests used:
[1] = Hepatic metabolism in human liver-on-chip; assay type: in vitro ADME; conditions: 1 μM, 48 h
Experimental: (§1) LCMs, 27a, and 27a metabolites were extracted from PMNL, medium of the liver-on-chip, murine plasma, peritoneal exudate, or homogenized murine tissue as described.[6] In brief, PBS pH 7.4, methanol, chloroform, and saline (final ratio: 14:34:35:17) were successively added together with 13d (9 pmol) as the internal standard. The organic layer was evaporated, and the extracted LCMs were dissolved in methanol.
LCMs, 27a, and 27a metabolites were separated at a flow rate of 0.8 mL/min and a column temperature of 45 °C, with acetonitrile/H2O (10:90) as mobile phase A and acetonitrile as mobile phase B, both acidified with 0.07% formic acid. The linear gradient from A/B = 50:50 to 0:100 within 4.5 min was followed by isocratic elution with A/B = 0:100 for 1 min. MS parameters were adjusted according to Pein et al.[6] and as detailed in Table S3. Signal intensities were normalized to the internal standard 13d, and concentrations were calculated using external calibration curves as specified in Table S3. […]
The medium between the two membranes was renewed, and the vehicle (DMSO), 12a, or 27a were added. […] 12a, 27a, and their metabolites were extracted from the combined fractions and analyzed by UPLC-MS/MS.[6]

[2] = target: T1, 5-LOX (Homo sapiens, UniProt P09917); assay: Cell-free 5-LOX activity (isolated human recombinant enzyme)
T1 sequence (P09917 1-674): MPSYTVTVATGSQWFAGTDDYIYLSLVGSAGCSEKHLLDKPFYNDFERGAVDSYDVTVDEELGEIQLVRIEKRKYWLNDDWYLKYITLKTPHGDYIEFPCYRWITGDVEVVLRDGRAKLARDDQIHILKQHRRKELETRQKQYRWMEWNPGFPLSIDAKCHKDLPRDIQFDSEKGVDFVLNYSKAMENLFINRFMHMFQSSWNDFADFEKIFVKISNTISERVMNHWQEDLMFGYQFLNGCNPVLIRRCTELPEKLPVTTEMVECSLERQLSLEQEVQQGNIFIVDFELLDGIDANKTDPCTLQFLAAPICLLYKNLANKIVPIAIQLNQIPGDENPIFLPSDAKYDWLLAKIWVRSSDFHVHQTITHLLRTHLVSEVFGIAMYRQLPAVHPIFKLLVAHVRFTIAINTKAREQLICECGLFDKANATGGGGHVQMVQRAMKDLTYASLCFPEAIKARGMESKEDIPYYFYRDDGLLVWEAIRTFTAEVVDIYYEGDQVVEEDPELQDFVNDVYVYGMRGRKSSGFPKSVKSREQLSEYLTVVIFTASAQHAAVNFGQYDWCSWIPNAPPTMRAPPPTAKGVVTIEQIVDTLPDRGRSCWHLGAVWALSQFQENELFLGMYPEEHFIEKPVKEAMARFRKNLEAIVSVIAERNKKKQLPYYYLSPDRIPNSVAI
Experimental: Human recombinant 5-LOX was expressed in E. coli Bl21 (DE3) cells that were transformed with pT3–5LOX (wt 5-LOX), 5-LOX_3W (triple mutation of Trp102Ala/Trp13Ala/Trp75Ala), or 5-LOX_R (single mutant of the Arg101Asp plasmid) and purified on an ATP-agarose column (Econo-Pac, Bio-Rad, Hercules, CA) by affinity chromatography.[6],[75]
Purified 5-LOX (0.5 μg in PBS pH 7.4 containing 1 mM EDTA and 1 mM ATP) was preincubated with the vehicle (DMSO) or test compounds for 10 min and prewarmed at 37 °C.

[3] = target: T1, 5-LOX; assay: 5-LOX product formation in activated PMNL;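 also: freshly isolated human PMNL in PBS pH 7.4 plus glucose, preincubated 10 min at 37 °C with compound, 5-LOX products (all-trans LTB4 isomers, 5-HETE) quantified by RP-HPLC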
Experimental: These volunteers regularly donated blood (every 8–12 weeks) and were physically inspected by a clinician.
Erythrocytes were removed by dextran sedimentation and hypotonic lysis. PMNL were obtained from the cell pellet and platelets from the supernatant.
Freshly isolated PMNL (5 × 10^6) suspended in PBS pH 7.4 with 1 mg/mL glucose or freshly withdrawn human whole blood were preincubated with the test compounds for 10 min (or as indicated) at 37 °C. […] The reaction was stopped with an equal volume of methanol.

[4] = Concentrations of compound in plasma and lung in the asthma model; assay type: in vivo, mice; conditions: 10 mg/kg p.o. on days 0 and 7
Experimental: as §1
LCMs, 27a, and 27a metabolites were separated at a flow rate of 0.8 mL/min and a column temperature of 45 °C, with acetonitrile/H2O (10:90) as mobile phase A and acetonitrile as mobile phase B, both acidified with 0.07% formic acid. […] Signal intensities were normalized to the internal standard 13d, and concentrations were calculated using external calibration curves as specified in Table S3.
BALB/c mice received 27a (p.o.) or vehicle (0.5% carboxymethylcellulose in 10% Tween 20; 0.5 mL) on days 0 and 7, 1 h (p.o) before being sensitized to ovalbumin (100 μg adsorbed to 3.3 mg of aluminum hydroxide gel, s.c., Sigma-Aldrich). […] To assess bronchial reactivity, the cumulative response to carbachol (0.001 to 3.16 μM) was measured. Bronchial relaxation was determined from the cumulative response of precontracted bronchial tissues to salbutamol. Compound 27a, LTB4, and LTB4 isomers were analyzed in plasma and lung homogenates by UPLC-MS/MS. […]

[5] = test system: mice sensitized to ovalbumin; assay: Experimental model of murine asthma (ovalbumin sensitization); assay type: in vivo; conditions: 10 mg/kg p.o.
Experimental: Male CD-1 mice (33–39 g, 6–8 weeks, Charles River Laboratories; Calco, Italy) and female BALB/c mice (20 g, 8 weeks, Charles River Laboratories) were fed with standard rodent chow and water and acclimated for 4 days at a 12 h light and 12 h dark schedule in a constant air-conditioned environment (21 ± 2 °C). Mice were randomly assigned to groups, and experiments were carried out during the light phase.
BALB/c mice received 27a (p.o.) or vehicle (0.5% carboxymethylcellulose in 10% Tween 20; 0.5 mL) on days 0 and 7, 1 h (p.o) before being sensitized to ovalbumin (100 μg adsorbed to 3.3 mg of aluminum hydroxide gel, s.c., Sigma-Aldrich). Mice were sacrificed on days 1, 3, 8, 10, or 21 to collect lung and plasma. Bronchi were cut in rings of 1 to 2 mm length, placed in organ baths, and fixed to an isometric force transducer 7006 connected to a Powerlab 800 (AD Instruments, Ugo Basile, Comerio, Italy). After stretching the rings to a resting tension of 0.5g and equilibration for at least 30 min, the rings were challenged with carbachol (1 μM) until a reproducible response was observed. To assess bronchial reactivity, the cumulative response to carbachol (0.001 to 3.16 μM) was measured. Bronchial relaxation was determined from the cumulative response of precontracted bronchial tissues to salbutamol. Compound 27a, LTB4, and LTB4 isomers were analyzed in plasma and lung homogenates by UPLC-MS/MS. Lung tissue (100 mg/mL) was homogenized in PBS pH 7.4 at 4 °C for 1–2 min using an Omni tissue homogenizer (Omni, Kennesaw, GA).

SMILES: C/C(=C\CC/C(C)=C/CC[C@]1(C)CCc2c(C)c(O)c(C)c(C)c2O1)CCC=C(CO)CO [Compound 27a, α-amplexichromanol]
- Hepatic metabolism [1]: preferentially conjugated with sulfate or oxidized at 12a′ or 13′ to the respective ω-carboxylic acid
- Effect of Triton X-100 on 5-LOX inhibition ([2]; Triton X-100 (0.01%)): did not substantially impair 5-LOX inhibition
- Dependence of 5-LOX inhibition on substrate (arachidonic acid) concentration ([2]; human recombinant 5-LOX): independent of the substrate concentration
- Reversibility of 5-LOX inhibition ([2]; preincubation 15 min, 10-fold dilution): reversible
- IC50 ([2]; read-out: 5-LOX enzyme IC50, isolated human 5-LOX, cell-free, mean ± SEM): 110 ± 30 nM
- remaining activity at 1 µM ([2]; read-out: 5-LOX enzyme residual activity at 1 μM): 0.1%
- remaining activity at 3 µM ([3]; PMNL, read-out: 5-LOX PMNL residual activity at 3 μM): 0.5 ± 0.1%
- IC50 ([3]; read-out: 5-LOX PMNL IC50, 5-LOX product formation in activated PMNL, mean ± SEM): 40 ± 10 nM
- IC50 ([3]; read-out: IC50, 5-LOX product formation in PMNL, A23187): 50 nM
- Time course of systemic concentrations in plasma and lung [4]: peaked at the days after administration (days 1 and 8) and then rapidly declined
- Lung levels of LTB4 and its isomers ([5]; day 3): lowered lung levels of LTB4 and its isomers
- Adrenergic bronchial relaxation induced by salbutamol ([5]; day 21): fully restored the adrenergic bronchial relaxation induced by salbutamol
- Ovalbumin-induced bronchial hyperreactivity to carbachol ([5]; day 21): blocked ovalbumin-induced bronchial hyperreactivity to carbachol
